Laboratory results taken from ChEMBL document CHEMBL4028801, “A multifactorial approach to hepatobiliary transporter assessment enables improved therapeutic compound development” (Toxicol Sci, 2013).
Structures can show the parent of a compound that is named as a salt.

Experiments:
[1] = biological target: T1, ATP-binding cassette sub-family C member 4 (Homo sapiens, UniProt O15439); assay: Inhibition of human MRP4 overexpressed in Sf9 cell membrane vesicles assessed as uptake of [3H]-estradiol-17beta-D-glucuronide in presence of ATP and GSH measured after 20 mins by membrane vesicle transport assay; assay type: ADME, cell-based
T1 sequence (O15439 whole entry): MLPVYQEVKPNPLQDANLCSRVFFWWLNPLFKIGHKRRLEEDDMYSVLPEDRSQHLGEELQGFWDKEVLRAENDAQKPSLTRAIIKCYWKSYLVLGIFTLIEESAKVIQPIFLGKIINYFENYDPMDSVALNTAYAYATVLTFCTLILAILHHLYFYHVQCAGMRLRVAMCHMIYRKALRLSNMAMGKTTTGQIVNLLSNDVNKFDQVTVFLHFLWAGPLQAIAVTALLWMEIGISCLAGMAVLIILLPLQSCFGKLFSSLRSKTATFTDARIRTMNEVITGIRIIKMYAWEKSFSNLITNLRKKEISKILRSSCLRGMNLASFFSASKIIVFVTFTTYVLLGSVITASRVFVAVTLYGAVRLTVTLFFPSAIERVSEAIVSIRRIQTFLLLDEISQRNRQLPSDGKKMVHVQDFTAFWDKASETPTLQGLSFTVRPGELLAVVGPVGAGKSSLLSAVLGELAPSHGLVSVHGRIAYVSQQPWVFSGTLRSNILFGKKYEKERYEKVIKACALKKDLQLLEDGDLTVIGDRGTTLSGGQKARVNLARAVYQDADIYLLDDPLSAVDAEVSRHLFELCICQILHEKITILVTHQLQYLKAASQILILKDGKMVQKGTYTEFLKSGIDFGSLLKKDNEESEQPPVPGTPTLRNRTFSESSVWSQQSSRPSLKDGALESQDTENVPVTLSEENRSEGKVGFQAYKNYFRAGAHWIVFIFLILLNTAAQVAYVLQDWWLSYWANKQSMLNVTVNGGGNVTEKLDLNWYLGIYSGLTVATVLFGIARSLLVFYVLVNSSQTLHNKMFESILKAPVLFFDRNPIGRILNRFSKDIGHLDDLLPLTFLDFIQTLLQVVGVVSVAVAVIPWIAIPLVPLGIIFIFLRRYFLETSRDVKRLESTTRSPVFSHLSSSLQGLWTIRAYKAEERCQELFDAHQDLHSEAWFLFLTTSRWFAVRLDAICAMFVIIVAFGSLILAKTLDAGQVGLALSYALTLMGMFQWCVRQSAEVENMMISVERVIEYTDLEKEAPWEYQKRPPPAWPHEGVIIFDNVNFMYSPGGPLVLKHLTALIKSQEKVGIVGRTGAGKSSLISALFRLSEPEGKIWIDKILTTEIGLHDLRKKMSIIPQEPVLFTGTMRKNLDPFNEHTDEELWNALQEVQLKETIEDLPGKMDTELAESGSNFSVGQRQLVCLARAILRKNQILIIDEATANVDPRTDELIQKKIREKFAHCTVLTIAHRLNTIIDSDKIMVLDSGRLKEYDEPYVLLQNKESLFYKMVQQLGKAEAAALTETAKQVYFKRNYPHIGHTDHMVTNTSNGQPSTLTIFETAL

[2] = biological target: ATP-binding cassette sub-family C member 2 (Homo sapiens, UniProt Q92887); assay: Inhibition of human MRP2 overexpressed in Sf9 cell membrane vesicles assessed as uptake of [3H]-estradiol-17beta-D-glucuronide in presence of ATP and GSH measured after 20 mins by membrane vesicle transport assay
[3] = biological target: ATP-binding cassette sub-family C member 3 (Homo sapiens, UniProt O15438); assay: Inhibition of human MRP3 overexpressed in Sf9 insect cell membrane vesicles assessed as uptake of [3H]-estradiol-17beta-D-glucuronide in presence of ATP and GSH measured after 10 mins by membrane vesicle transport assay; assay type: ADME, cell-based
Chain of ATP-binding cassette sub-family C member 3 (O15438 whole entry): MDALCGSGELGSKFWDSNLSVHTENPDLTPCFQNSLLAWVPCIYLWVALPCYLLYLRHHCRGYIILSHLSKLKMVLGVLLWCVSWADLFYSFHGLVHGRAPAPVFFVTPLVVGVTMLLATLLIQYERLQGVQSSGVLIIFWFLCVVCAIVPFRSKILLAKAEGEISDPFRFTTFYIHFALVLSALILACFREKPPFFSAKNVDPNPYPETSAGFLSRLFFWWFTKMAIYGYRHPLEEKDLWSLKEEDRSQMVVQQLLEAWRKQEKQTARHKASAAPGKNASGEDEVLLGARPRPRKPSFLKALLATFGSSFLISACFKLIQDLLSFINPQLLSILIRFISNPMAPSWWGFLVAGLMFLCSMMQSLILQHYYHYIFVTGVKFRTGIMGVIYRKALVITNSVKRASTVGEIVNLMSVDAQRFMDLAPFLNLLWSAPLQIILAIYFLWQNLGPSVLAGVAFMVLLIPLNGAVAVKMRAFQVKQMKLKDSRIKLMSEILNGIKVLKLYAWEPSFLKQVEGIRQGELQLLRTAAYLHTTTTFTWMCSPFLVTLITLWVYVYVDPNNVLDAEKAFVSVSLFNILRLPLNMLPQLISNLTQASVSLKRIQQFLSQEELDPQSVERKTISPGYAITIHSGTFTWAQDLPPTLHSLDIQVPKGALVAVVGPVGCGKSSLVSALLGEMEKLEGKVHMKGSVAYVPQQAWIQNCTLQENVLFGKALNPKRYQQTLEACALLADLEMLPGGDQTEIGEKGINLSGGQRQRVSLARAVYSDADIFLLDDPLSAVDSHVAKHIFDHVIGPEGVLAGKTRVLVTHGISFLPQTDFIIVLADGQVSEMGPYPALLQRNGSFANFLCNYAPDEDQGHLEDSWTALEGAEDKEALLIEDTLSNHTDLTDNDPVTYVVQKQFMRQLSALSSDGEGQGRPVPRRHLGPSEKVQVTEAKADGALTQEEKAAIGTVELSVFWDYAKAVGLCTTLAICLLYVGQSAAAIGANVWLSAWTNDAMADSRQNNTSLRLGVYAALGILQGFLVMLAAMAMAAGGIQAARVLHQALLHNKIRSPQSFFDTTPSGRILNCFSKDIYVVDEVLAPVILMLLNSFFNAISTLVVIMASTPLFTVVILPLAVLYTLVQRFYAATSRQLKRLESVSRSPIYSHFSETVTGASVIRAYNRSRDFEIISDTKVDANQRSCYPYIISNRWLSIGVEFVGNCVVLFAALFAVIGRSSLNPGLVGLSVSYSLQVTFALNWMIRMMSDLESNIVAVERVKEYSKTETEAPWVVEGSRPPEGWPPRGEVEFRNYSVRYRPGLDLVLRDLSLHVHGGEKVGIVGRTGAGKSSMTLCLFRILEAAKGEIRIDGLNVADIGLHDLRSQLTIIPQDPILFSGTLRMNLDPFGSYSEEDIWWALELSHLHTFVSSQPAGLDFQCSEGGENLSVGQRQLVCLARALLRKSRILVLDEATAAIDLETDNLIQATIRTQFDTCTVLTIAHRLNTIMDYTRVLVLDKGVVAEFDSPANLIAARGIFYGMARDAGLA

Chain of ATP-binding cassette sub-family C member 2 (Q92887 whole entry): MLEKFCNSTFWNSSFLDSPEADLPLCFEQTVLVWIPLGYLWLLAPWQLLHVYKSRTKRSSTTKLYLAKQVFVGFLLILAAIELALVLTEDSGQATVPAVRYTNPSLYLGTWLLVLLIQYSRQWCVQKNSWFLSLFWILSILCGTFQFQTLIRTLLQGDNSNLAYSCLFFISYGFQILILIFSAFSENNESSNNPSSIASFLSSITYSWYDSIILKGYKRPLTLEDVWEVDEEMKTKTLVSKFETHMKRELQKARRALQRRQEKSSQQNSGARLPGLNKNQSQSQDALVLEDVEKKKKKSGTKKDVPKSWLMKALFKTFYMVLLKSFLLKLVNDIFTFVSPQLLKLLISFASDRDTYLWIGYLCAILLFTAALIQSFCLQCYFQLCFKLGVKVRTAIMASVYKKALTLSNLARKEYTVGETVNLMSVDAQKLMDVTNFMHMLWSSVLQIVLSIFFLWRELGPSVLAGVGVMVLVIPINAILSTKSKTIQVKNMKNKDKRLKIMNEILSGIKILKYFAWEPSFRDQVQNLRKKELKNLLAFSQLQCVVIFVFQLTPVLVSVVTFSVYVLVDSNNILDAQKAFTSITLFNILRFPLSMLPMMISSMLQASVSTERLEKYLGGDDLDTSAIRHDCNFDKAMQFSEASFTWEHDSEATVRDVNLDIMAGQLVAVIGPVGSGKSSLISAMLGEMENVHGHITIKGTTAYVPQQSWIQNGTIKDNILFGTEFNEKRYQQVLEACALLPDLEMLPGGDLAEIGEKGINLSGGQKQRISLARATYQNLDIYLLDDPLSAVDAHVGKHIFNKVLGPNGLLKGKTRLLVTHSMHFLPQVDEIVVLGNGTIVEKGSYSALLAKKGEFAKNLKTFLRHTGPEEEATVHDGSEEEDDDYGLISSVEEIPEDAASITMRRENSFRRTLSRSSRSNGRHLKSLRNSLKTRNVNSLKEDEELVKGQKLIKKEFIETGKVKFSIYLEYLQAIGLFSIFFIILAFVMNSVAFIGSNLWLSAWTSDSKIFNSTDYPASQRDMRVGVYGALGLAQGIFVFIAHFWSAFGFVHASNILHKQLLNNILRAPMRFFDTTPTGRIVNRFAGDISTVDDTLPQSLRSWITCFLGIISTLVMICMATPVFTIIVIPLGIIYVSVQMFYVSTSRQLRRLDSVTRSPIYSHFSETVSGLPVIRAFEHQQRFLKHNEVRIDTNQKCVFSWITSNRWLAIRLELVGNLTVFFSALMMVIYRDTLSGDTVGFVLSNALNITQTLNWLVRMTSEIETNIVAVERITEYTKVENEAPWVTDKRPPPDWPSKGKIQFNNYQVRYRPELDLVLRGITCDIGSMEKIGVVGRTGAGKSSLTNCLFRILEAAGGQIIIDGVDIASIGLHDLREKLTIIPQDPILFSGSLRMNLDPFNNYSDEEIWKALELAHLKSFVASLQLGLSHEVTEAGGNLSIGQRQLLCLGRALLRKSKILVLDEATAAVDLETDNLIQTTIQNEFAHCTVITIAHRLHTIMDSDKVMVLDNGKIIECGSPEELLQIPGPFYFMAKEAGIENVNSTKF

Structure (SMILES): O=c1[nH]cnc2c1ncn2[C@H]1CC[C@@H](CO)O1 [DIDANOSINE]
- IC50 [1]: > 133 µM
- IC50 [2]: > 133 µM
- IC50 [3]: > 133 µM

Structure (SMILES): CC(C)(C)NCC(O)c1ccc(O)c(CO)c1 (stereo unspecified) [ALBUTEROL]
- IC50 [1]: > 133 µM
- IC50 [2]: > 133 µM
- IC50 [3]: > 133 µM

Structure (SMILES): CCS(=O)(=O)CCn1c([N+](=O)[O-])cnc1C [TINIDAZOLE]
- IC50 [1]: > 133 µM
- IC50 [2]: > 133 µM
- IC50 [3]: > 133 µM

Structure (SMILES): OC(Cn1cncn1)(Cn1cncn1)c1ccc(F)cc1F [FLUCONAZOLE]
- IC50 [1]: > 133 µM
- IC50 [2]: > 133 µM
- IC50 [3]: > 133 µM

Structure (SMILES): C(=C\c1ccccc1)/CN1CCN(C(c2ccccc2)c2ccccc2)CC1 [CINNARIZINE]
- IC50 [1]: > 133 µM
- IC50 [2]: > 133 µM
- IC50 [3]: > 133 µM

Structure (SMILES): Nc1ccn([C@@H]2O[C@H](CO)[C@@H](O)[C@@H]2O)c(=O)n1 [CYTARABINE]
- IC50 [1]: > 133 µM
- IC50 [2]: > 133 µM
- IC50 [3]: > 133 µM

Structure (SMILES): CC[C@@H](CO)NCCN[C@@H](CC)CO [ETHAMBUTOL HYDROCHLORIDE]
- IC50 [1]: > 133 µM
- IC50 [2]: > 133 µM
- IC50 [3]: 88.2 µM

Structure (SMILES): CNCCCC12CCC(c3ccccc31)c1ccccc12 [MAPROTILINE]
- IC50 [1]: > 133 µM
- IC50 [2]: > 133 µM
- IC50 [3]: > 133 µM

Structure (SMILES): Cc1nc2n(c(=O)c1CCN1CCC(c3noc4cc(F)ccc34)CC1)CCCC2 [RISPERIDONE]
- IC50 [1]: > 133 µM
- IC50 [2]: > 133 µM
- IC50 [3]: > 133 µM

Structure (SMILES): CCN(CC)CCCC(C)Nc1ccnc2cc(Cl)ccc12 (stereo unspecified) [CHLOROQUINE]
- IC50 [1]: 104 µM
- IC50 [2]: > 133 µM
- IC50 [3]: > 133 µM

Structure (SMILES): NCCCC[C@H](N[C@@H](CCc1ccccc1)C(=O)O)C(=O)N1CCC[C@H]1C(=O)O [LISINOPRIL ANHYDROUS]
- IC50 [1]: > 133 µM
- IC50 [2]: > 133 µM
- IC50 [3]: > 133 µM

Structure (SMILES): CN1CCN(CCCN2c3ccccc3Sc3ccc(Cl)cc32)CC1 [PROCHLORPERAZINE]
- IC50 [1]: > 133 µM
- IC50 [2]: > 133 µM
- IC50 [3]: > 133 µM

Structure (SMILES): CNC(=C[N+](=O)[O-])NCCSCc1ccc(CN(C)C)o1 [RANITIDINE]
- IC50 [1]: > 133 µM
- IC50 [2]: > 133 µM
- IC50 [3]: > 133 µM

Structure (SMILES): CCCCC[C@H](O)/C=C/[C@H]1[C@H](O)CC(=O)[C@@H]1CCCCCCC(=O)O [ALPROSTADIL]
- IC50 [1]: 2.3 µM
- IC50 [2]: > 133 µM
- IC50 [3]: 26.9 µM

Structure (SMILES): CC1(COc2ccc(CC3SC(=O)NC3=O)cc2)CCCCC1 (stereo unspecified) [CIGLITAZONE]
- IC50 [1]: > 133 µM
- IC50 [2]: > 133 µM
- IC50 [3]: > 133 µM

Structure (SMILES): CN(C)C(=N)N=C(N)N [METFORMIN]
- IC50 [1]: > 133 µM
- IC50 [2]: > 133 µM
- IC50 [3]: > 133 µM

Structure (SMILES): COc1cc2c(c(OC)c1OC)-c1ccc(OC)c(=O)cc1[C@@H](NC(C)=O)CC2 [COLCHICINE]
- IC50 [1]: > 133 µM
- IC50 [2]: > 133 µM
- IC50 [3]: > 133 µM

Structure (SMILES): C[C@]12CC[C@@H]3c4ccc(O)cc4CC[C@H]3[C@@H]1CC[C@@H]2O [ESTRADIOL]
- IC50 [1]: > 133 µM
- IC50 [3]: > 133 µM

Structure (SMILES): CC(C)NCC(O)COc1cccc2[nH]ccc12 (stereo unspecified) [PINDOLOL]
- IC50 [1]: > 133 µM
- IC50 [2]: > 133 µM
- IC50 [3]: > 133 µM

Structure (SMILES): Cn1cnc([N+](=O)[O-])c1Sc1ncnc2nc[nH]c12 [AZATHIOPRINE]
- IC50 [1]: > 133 µM
- IC50 [2]: > 133 µM
- IC50 [3]: > 133 µM

Structure (SMILES): O=C(N[C@H](CO)[C@H](O)c1ccc([N+](=O)[O-])cc1)C(Cl)Cl [CHLORAMPHENICOL]
- IC50 [1]: > 133 µM
- IC50 [3]: > 133 µM

Structure (SMILES): O=C(O)CCc1nc(-c2ccccc2)c(-c2ccccc2)o1 [OXAPROZIN]
- IC50 [2]: > 133 µM
- IC50 [3]: > 133 µM

Structure (SMILES): O=C(CCCN1CCC(O)(c2ccc(Cl)cc2)CC1)c1ccc(F)cc1 [HALOPERIDOL]
- IC50 [1]: > 133 µM
- IC50 [3]: > 133 µM

Structure (SMILES): CO[C@@]1(NC(=O)C2SC(=C(C(N)=O)C(=O)O)S2)C(=O)N2C(C(=O)O)=C(CSc3nnnn3C)CS[C@@H]21 (stereo partly specified) [CEFOTETAN]
- IC50 [3]: 79 µM
